± gives the standard deviation of the averaged measurements.
Assays:
Settings in all cases: 72 h
[1] = test system: Caco-2; assay: cell viability relative to DMSO; higher = less toxic
[2] = test system: HepG2; assay: as above
[3] = test system: U2OS; assay: as above
[4] = test system: Vero E6; assay: as above
[5] = test system: Caco-2; assay: relative viability EC50 (midpoint between 100% and the lowest measured viability); higher = less toxic
[6] = test system: HepG2; assay: as above
[7] = test system: U2OS; assay: as above
[8] = test system: Vero E6; assay: as above
[9] = test system: Caco-2; assay: drug sensitivity score (DSS) for viability; higher = more toxic; extreme values may be limits of the assay
[10] = test system: HepG2; assay: as above
[11] = test system: U2OS; assay: as above
[12] = test system: Vero E6; assay: as above
[13] = test system: Calu-3; assay: cell viability relative to DMSO; higher = less toxic
[14] = test system: Calu-3; assay: relative viability EC50 (midpoint between 100% and the lowest measured viability); higher = less toxic
[15] = test system: Calu-3; assay: drug sensitivity score (DSS) for viability; higher = more toxic; extreme values may be limits of the assay

| Structure (SMILES) | cell viability ([1]; 1 nM) [%] | cell viability ([1]; 10 nM) [%] | cell viability ([1]; 100 nM) [%] | cell viability ([1]; 1000 nM) [%] | cell viability ([1]; 10000 nM) [%] | cell viability ([2]; 1 nM) [%] | cell viability ([2]; 10 nM) [%] | cell viability ([2]; 100 nM) [%] | cell viability ([2]; 1000 nM) [%] | cell viability ([2]; 10000 nM) [%] | cell viability ([3]; 1 nM) [%] | cell viability ([3]; 10 nM) [%] | cell viability ([3]; 100 nM) [%] | cell viability ([3]; 1000 nM) [%] | cell viability ([3]; 10000 nM) [%] | cell viability ([4]; 1 nM) [%] | cell viability ([4]; 10 nM) [%] | cell viability ([4]; 100 nM) [%] | cell viability ([4]; 1000 nM) [%] | cell viability ([4]; 10000 nM) [%] | relative viability EC50 [5] [µM] | relative viability EC50 [6] [µM] | relative viability EC50 [7] [µM] | relative viability EC50 [8] [µM] | drug sensitivity score [9] | drug sensitivity score [10] | drug sensitivity score [11] | drug sensitivity score [12] | cell viability ([13]; 1 nM) [%] | cell viability ([13]; 10 nM) [%] | cell viability ([13]; 100 nM) [%] | cell viability ([13]; 1000 nM) [%] | cell viability ([13]; 10000 nM) [%] | relative viability EC50 [14] [µM] | drug sensitivity score [15] |
| --- | --- | --- | --- | --- | --- | --- | --- | --- | --- | --- | --- | --- | --- | --- | --- | --- | --- | --- | --- | --- | --- | --- | --- | --- | --- | --- | --- | --- | --- | --- | --- | --- | --- | --- | --- |
| CC1=C(C(=O)Nc2cc3cn[nH]c3cc2F)C(c2ccc(C(F)(F)F)cc2)CC(=O)N1 (stereo not drawn) | 83 | 89.6 | 91.3 | 99.1 | 102 | 100 | 103 | 104 | 95.6 | 92 | 94.9 | 97.9 | 92.3 | 96.8 | 86.3 | 102 | 104 | 101 | 82.5 | 84.4 | > 10 | > 10 | > 10 | > 10 | 0 | 0 | 0 | 2 |  |  |  |  |  |  |  |
| NCCCC[C@H](NC(=O)[C@@H]1CCCN1C(=O)[C@@H]1CSSC[C@H](NC(=O)CNC(=O)CNC(=O)CN)C(=O)N[C@@H](Cc2ccc(O)cc2)C(=O)N[C@@H](Cc2ccccc2)C(=O)N[C@@H](CCC(N)=O)C(=O)N[C@@H](CC(N)=O)C(=O)N1)C(=O)NCC(N)=O [terlipressin] | 100 | 96.5 | 98 | 100 | 103 | 94.4 | 105 | 94.3 | 97.4 | 110 |  |  |  |  |  | 93.7 | 100 | 86.1 | 91.2 | 110 | > 10 | > 10 |  | > 10 | 0 | 0 |  | 0 | 93.9 | 92 | 102 | 95.8 | 96.4 | > 10 | 0 |
| O=c1onc2cnc3ccccc3n12 [ODQ] | 91.3 | 96 | 95.2 | 89.9 | 112 | 105 | 110 | 100 | 110 | 94.3 |  |  |  |  |  | 97.9 | 96.4 | 97.6 | 108 | 105 | > 10 | > 10 |  | > 10 | 0 | 0 |  | 0 |  |  |  |  |  |  |  |
| O=C1COc2nccc(-c3ccccc3F)c2CN1Cc1cc(C(F)(F)F)cc(C(F)(F)F)c1 [GPBAR-A] | 102 | 102 | 106 | 102 | 86.9 | 108 | 91.3 | 103 | 94.4 | 100 | 97.7 | 103 | 100 | 104 | 91.2 | 101 | 99 | 98.9 | 101 | 102 | > 10 | > 10 | > 10 | > 10 | 0.1 | 0 | 0 | 0 | 81.2 | 104 | 67.2 | 98.7 | 68.1 |  | 4.3 |
| CC(C)(C#N)c1ccc(N2C(=O)OCc3cnc4ccc(-c5cnc6ccccc6c5)cc4c32)cc1 | 107 | 108 | 102 | 75 | 77.4 | 116 | 113 | 96.4 | 100 | 89.6 |  |  |  |  |  | 109 | 104 | 103 | 97.4 | 84.6 | > 10 | > 10 |  | > 10 | 3.7 | 0 |  | 0.5 | 110 | 97.3 | 110 | 68.3 | 41.5 | 0.939 | 7.1 |
| CC1Oc2cc(cnc2N)-c2c(nn(C)c2C#N)CN(C)C(=O)c2ccc(F)cc21 (stereo not drawn) | 89.2 ± 7.6 | 97 ± 8 | 96.15 ± 0.21 | 91.6 ± 4.1 | 83.4 ± 7.8 | 95 ± 4.1 | 101 ± 9.8 | 99.3 ± 4.7 | 87.5 ± 6.2 | 72.2 ± 6.9 | 97.8 ± 2.6 | 103.8 ± 0.64 | 97.2 ± 2.4 | 96.6 ± 1.4 | 83.5 ± 8.1 | 103 ± 4.9 | 92 ± 6.6 | 90.5 ± 2.6 | 80.2 ± 0.28 | 83.2 ± 7.3 | > 10 |  | > 10 | > 10 | 0 | 2.5 ± 1.6 | 0.7 ± 0.99 | 3.35 ± 0.35 | 105 ± 5.7 | 95.5 ± 3.8 | 88.7 ± 2.4 | 74.8 ± 4.3 | 78.7 ± 7.5 |  | 4.85 ± 1.1 |
| CCNC(=O)[C@H]1O[C@@H](n2cnc3c(N)ncnc32)[C@H](O)[C@@H]1O [NECA] | 102 | 97.6 | 110 | 111 | 110 | 94.8 | 102 | 107 | 105 | 105 |  |  |  |  |  | 100 | 105 | 96.1 | 101 | 94.4 | > 10 | > 10 |  | > 10 | 0 | 0 |  | 0 | 106 | 102 | 94.9 | 88.5 | 92.8 | > 10 | 0.6 |
| Cc1cn([C@H]2O[C@@H](CO)[C@H](O)[C@H]2F)c(=O)[nH]c1=O [clevudine] | 102 | 105 | 94.4 | 108 | 87.5 | 105 | 92.7 | 104 | 95.2 | 97.1 | 92.4 | 102 | 101 | 98.2 | 97.2 |  |  |  |  |  | > 10 | > 10 | > 10 |  | 0 | 0 | 0 |  | 90.3 | 106 | 106 | 97.9 | 99.3 | > 10 | 0 |
